What was measured:
PBMC = experiment: Concentration required to inhibit LPS-induced TNFalpha production in human peripheral blood mononuclear cells; n=3; assay type: functional, cell-based
[1] = In vitro permeability of compound into Caco-2 cells; assay type: ADME, cell-based; conditions: human, read-out: Permeability
PHA-Ly = experiment: In vitro cytotoxic effect of compound (30 uM) on PHA blast cells compared to control after 24 hours of treatment; assay type: functional, Homo sapiens
[2] = Oral bioavailability of compound after administration of a solution dose in PEG400; assay type: ADME, organism-based; conditions: eutheria, in vivo
[3] = Half-life of compound evaluated in mice after intravenous administration; assay type: ADME, organism-based; conditions: mouse, in vivo
[4] = Metabolic rate as a measure of compound stability in rat liver microsomes; assay type: ADME, Microsome
[5] = Clearance of compound in mice after intravenous administration; assay type: ADME, organism-based; conditions: mouse, in vivo
[6] = Metabolic rate as a measure of compound stability in human liver microsomes; assay type: ADME, Microsome
MAP kinase p38 = MAP kinase p38 (Homo sapiens, UniProt O15264+Q15759+Q16539+P53778); experiment: Binding affinity for human p38 MAP kinase expressed in Escherichia coli using [gamma-33P]ATP; n=4
[7] = biological target: Cyclin-dependent kinase 2 (Homo sapiens, UniProt P24941); experiment: Inhibitory concentration against CDK2
[8] = biological target: Mitogen-activated protein kinase 13 (Homo sapiens, UniProt O15264); experiment: Inhibitory concentration against p38 delta
Sequence of Mitogen-activated protein kinase 13 (O15264 whole entry): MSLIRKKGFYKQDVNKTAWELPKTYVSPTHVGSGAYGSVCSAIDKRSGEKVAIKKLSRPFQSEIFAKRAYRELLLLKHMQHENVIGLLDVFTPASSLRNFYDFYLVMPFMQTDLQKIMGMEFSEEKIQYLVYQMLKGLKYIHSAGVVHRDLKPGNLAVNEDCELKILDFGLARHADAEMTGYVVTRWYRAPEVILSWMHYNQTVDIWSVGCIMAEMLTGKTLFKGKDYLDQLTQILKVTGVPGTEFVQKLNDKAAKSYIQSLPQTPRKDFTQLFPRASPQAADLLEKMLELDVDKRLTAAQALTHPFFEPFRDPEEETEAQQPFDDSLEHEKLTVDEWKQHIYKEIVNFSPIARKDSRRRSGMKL

[9] = biological target: Dual specificity mitogen-activated protein kinase kinase 1 (Homo sapiens, UniProt Q02750); experiment: Inhibitory concentration against MEK
Sequence of Dual specificity mitogen-activated protein kinase kinase 1 (Q02750 whole entry): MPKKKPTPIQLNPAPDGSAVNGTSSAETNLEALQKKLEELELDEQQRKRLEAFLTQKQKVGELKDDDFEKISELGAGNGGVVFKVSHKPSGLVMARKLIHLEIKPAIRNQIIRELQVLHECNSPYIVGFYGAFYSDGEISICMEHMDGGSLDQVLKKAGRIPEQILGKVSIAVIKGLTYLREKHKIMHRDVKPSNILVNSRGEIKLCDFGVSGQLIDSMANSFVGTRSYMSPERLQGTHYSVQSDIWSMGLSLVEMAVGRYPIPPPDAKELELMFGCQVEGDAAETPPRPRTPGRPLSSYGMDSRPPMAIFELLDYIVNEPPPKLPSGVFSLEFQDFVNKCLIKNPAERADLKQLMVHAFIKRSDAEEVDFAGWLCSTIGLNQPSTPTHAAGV

[10] = biological target: Receptor tyrosine-protein kinase erbB-2 (Homo sapiens, UniProt P04626); experiment: Inhibitory concentration against HER2 (ErbB2)
[11] = biological target: Serine/threonine-protein kinase AKT (Homo sapiens, UniProt P31751+Q9Y243+P31749); experiment: Inhibitory concentration against Akt; assay type: protein assay
[12] = biological target: Hepatocyte growth factor receptor (Homo sapiens, UniProt P08581); experiment: Inhibitory concentration against Met
[13] = biological target: Mitogen-activated protein kinase 12 (Homo sapiens, UniProt P53778); experiment: Inhibitory concentration against p38 gamma
[14] = biological target: Mitogen-activated protein kinase 14 (Homo sapiens, UniProt Q16539); experiment: Inhibitory concentration against p38 alpha
Sequence of Mitogen-activated protein kinase 14 (Q16539 whole entry): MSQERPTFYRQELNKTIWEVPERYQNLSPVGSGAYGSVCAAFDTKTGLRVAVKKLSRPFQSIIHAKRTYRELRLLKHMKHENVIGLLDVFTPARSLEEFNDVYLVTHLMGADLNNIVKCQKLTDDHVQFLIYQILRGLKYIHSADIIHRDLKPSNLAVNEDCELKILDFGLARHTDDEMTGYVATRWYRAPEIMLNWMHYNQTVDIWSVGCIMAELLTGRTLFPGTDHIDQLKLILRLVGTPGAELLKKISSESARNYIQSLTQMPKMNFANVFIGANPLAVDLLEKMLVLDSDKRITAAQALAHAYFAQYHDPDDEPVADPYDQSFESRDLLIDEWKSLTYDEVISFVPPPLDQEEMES

[15] = biological target: Tyrosine-protein kinase JAK3 (Homo sapiens, UniProt P52333); experiment: Inhibitory concentration against JAK3
Sequence of Tyrosine-protein kinase JAK3 (P52333 whole entry): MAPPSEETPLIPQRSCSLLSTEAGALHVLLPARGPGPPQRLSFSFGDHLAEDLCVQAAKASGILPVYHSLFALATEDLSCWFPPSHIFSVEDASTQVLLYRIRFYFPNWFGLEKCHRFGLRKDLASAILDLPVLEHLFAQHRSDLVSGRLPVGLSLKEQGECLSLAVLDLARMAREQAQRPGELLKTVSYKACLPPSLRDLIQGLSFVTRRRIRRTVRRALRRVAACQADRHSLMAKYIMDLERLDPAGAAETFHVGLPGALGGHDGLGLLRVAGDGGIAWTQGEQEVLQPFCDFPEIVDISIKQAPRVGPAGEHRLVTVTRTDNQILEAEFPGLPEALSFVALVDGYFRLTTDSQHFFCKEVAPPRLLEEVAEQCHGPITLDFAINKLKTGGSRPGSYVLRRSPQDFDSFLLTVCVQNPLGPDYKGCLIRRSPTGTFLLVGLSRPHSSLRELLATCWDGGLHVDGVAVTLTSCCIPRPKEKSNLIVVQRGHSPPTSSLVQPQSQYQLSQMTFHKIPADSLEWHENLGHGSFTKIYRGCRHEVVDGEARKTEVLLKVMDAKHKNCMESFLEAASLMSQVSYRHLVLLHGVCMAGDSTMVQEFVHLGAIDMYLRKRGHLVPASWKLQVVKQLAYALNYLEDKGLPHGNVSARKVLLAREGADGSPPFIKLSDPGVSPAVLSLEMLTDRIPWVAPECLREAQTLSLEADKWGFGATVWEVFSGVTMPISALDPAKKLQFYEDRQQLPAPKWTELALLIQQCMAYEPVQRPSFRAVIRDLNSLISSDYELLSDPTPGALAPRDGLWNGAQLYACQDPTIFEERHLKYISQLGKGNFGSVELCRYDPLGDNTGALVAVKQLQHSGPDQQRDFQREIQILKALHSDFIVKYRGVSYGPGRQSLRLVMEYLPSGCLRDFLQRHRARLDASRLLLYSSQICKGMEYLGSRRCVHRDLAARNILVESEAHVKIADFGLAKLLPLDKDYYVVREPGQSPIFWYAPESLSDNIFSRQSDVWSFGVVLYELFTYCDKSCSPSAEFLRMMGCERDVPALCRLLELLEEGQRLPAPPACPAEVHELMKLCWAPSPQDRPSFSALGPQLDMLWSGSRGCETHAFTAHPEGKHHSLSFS

[16] = biological target: Tyrosine-protein kinase ITK/TSK (Homo sapiens, UniProt Q08881); experiment: Inhibitory concentration against Itk
[17] = biological target: Mitogen-activated protein kinase 11 (Homo sapiens, UniProt Q15759); experiment: Inhibitory concentration against p38 beta
Sequence of Mitogen-activated protein kinase 11 (Q15759 whole entry): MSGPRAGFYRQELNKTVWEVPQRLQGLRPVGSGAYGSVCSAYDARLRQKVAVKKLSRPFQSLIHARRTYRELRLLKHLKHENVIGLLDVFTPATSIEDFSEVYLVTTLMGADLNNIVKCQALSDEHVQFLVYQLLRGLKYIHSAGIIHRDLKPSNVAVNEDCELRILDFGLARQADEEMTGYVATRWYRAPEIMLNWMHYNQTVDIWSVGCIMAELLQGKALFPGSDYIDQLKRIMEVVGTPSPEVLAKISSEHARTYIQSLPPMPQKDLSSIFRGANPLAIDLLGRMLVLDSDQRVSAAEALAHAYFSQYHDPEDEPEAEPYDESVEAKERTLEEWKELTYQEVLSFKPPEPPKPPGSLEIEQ

[18] = biological target: Mitogen-activated protein kinase 1 (Homo sapiens, UniProt P28482); experiment: Inhibitory concentration against ERK
Sequence of Mitogen-activated protein kinase 1 (P28482 whole entry): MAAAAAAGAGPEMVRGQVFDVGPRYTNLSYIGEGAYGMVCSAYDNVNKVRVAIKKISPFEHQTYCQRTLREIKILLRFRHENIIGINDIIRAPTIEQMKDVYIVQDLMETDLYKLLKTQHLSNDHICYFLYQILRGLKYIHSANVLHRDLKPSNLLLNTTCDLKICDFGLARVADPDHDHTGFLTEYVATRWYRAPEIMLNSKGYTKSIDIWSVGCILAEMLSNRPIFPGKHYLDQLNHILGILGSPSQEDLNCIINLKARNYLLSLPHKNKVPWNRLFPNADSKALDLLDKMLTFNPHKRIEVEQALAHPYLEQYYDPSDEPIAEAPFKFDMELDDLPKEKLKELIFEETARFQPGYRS

[19] = biological target: cAMP-dependent protein kinase (PKA) (Homo sapiens, UniProt P22694+P17612+P22612); experiment: Inhibitory concentration against PKA; assay type: protein assay
[20] = biological target: RAF proto-oncogene serine/threonine-protein kinase (Homo sapiens, UniProt P04049); experiment: Inhibitory concentration against Raf
Sequence of RAF proto-oncogene serine/threonine-protein kinase (P04049 whole entry): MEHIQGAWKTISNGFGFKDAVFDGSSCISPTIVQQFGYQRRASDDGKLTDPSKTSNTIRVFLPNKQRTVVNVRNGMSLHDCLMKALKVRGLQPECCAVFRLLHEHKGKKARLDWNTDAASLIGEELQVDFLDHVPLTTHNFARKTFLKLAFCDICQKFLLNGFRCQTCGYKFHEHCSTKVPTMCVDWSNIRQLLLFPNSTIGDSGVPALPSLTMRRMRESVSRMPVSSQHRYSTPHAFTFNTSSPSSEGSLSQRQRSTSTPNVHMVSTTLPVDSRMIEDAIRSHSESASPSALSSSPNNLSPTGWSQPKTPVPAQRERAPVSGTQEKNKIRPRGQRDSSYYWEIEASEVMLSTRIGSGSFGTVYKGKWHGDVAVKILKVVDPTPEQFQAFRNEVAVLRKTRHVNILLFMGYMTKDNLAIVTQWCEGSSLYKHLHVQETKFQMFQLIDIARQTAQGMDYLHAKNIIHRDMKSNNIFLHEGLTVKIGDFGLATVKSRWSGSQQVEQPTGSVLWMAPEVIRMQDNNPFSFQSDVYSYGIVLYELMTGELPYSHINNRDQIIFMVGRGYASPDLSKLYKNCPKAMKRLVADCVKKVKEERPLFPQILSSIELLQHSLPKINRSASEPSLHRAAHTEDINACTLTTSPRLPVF

[21] = biological target: Glycogen synthase kinase-3 (Homo sapiens, UniProt P49840+P49841); experiment: Inhibitory concentration against GSK-3; assay type: protein assay
[22] = biological target: MAP kinase-activated protein kinase 2 (Homo sapiens, UniProt P49137); experiment: Inhibitory concentration against MK2
[23] = biological target: Insulin-like growth factor 1 receptor (Homo sapiens, UniProt P08069); experiment: Inhibitory concentration against IGF-IR
Sequence of Insulin-like growth factor 1 receptor (P08069 31-736 limits assumed): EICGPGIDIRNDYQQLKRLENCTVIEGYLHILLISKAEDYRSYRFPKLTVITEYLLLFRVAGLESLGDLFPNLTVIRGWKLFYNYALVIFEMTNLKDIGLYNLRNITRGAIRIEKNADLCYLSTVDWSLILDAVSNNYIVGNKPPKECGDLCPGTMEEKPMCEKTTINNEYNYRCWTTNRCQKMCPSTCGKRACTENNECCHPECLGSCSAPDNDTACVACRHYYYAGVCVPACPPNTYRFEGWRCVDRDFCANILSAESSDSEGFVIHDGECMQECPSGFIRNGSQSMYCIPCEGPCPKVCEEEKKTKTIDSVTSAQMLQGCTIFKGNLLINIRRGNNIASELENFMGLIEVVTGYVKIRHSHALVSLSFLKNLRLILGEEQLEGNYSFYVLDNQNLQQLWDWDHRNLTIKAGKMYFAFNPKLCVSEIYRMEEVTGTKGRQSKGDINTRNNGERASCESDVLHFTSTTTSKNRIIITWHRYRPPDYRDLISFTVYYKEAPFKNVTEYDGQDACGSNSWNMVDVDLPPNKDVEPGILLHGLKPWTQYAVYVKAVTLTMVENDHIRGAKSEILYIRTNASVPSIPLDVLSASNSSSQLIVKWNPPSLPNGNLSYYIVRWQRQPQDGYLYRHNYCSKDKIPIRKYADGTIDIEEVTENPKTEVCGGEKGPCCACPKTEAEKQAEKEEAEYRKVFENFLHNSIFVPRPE
Sequence of Insulin-like growth factor 1 receptor (P08069 741-1367 limits assumed): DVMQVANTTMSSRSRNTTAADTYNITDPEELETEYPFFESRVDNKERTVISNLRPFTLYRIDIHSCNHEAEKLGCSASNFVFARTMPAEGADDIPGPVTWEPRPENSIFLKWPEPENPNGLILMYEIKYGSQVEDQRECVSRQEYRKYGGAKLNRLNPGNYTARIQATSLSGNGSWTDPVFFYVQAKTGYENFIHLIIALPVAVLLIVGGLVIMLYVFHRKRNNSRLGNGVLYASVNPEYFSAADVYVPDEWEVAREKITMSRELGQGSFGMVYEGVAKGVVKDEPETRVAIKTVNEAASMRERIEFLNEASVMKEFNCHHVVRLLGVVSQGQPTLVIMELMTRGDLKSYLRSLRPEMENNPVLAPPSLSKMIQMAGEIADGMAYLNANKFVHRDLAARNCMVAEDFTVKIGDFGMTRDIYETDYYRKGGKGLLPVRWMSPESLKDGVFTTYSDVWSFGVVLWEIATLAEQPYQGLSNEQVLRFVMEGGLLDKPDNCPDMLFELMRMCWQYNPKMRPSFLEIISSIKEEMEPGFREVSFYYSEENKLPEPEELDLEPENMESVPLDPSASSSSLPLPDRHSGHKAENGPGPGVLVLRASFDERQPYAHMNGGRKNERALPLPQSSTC

[24] = biological target: Tyrosine-protein kinase SYK (Homo sapiens, UniProt P43405); experiment: Inhibitory concentration against Syk
Protein kinase C (PKC) = experiment: Inhibitory concentration against PKC; assay type: protein assay
[25] = biological target: Tyrosine-protein kinase Lck (Homo sapiens, UniProt P06239); experiment: Inhibitory concentration against Lck
[26] = biological target: Fibroblast growth factor receptor (Homo sapiens, UniProt P22607+P11362+P22455+P21802); experiment: Inhibitory concentration against FGF receptor; assay type: protein assay
[27] = biological target: Inhibitor of NF-kappa-B kinase (IKK) (Homo sapiens, UniProt O14920+O15111+Q9Y6K9); experiment: Inhibitory concentration against IKK; assay type: protein-complex assay
[28] = biological target: Vascular endothelial growth factor receptor 2 (Homo sapiens, UniProt P35968); experiment: Inhibitory concentration against KDR

Compound `CNc1nc(Nc2cc(C(=O)NOC)ccc2C)c(C#N)c(N(C)CC(C)(C)C)n1` has an IC50 (PBMC) of 64 µM.

With `CONC(=O)c1ccc(C)c(Nc2ncnc(N(C)CC(C)(C)C)c2C#N)c1` the IC50 (PBMC) was 42 µM.

For `CCn1nccc1NC(=O)c1ccc(C)c(Nc2ncnc(NC(C)C)c2C#N)c1`, the IC50 (PBMC) was 130 µM.

In the case of `CONC(=O)c1ccc(C)c(Nc2nc(N3CCCN(C)CC3)nc(N(C)CC(C)(C)C)c2C#N)c1`, the IC50 (PBMC) is reported as 0.33 µM.

`Cc1ccc(C(=O)Nc2ccon2)cc1Nc1nc(N)nc(NC(C)C)c1C#N` gave an IC50 (PBMC) of 18 µM.

With `Cc1ccc(C(=O)Nc2ccon2)cc1Nc1nc(N)nc(NC2CCCC2)c1C#N` the IC50 (PBMC) was 1.5 µM.

With `CNc1ncnc(Nc2cc(C(=O)NOC)ccc2C)c1C#N` the IC50 (PBMC) was greater than 250 µM.

Work on `CCn1nccc1NC(=O)c1ccc(C)c(Nc2ncnc(NC3CCCC3)c2C#N)c1` yielded an IC50 (PBMC) of 72 µM.

`CCn1nccc1NC(=O)c1ccc(C)c(Nc2nc(N)nc(NC3CCCC3)c2C#N)c1` showed an IC50 (PBMC) of 21 µM.

With `Cc1ccc(C(=O)Nc2ccon2)cc1Nc1ncnc(NC(C)C)c1C#N` the Papp [1] was 23.9 ×10⁻⁶ cm/s, the Control (PHA-Ly) was 82% and the bioavailability [2] was 100%. For the same compound, the half-life [3] was 1.7 h, the IC50 (PBMC) was 8.7 µM and the Metabolic rate [4] was 0.22 nmol/min*mg of protein. For the same compound, the clearance [5] was 28.3 mL/min/kg and the Metabolic rate [6] was 0.012 nmol/min*mg of protein.

`CONC(=O)c1ccc(C)c(Nc2ncnc(NC3CCCC3)c2C#N)c1` showed an IC50 (PBMC) of 4.1 µM and a Ki (MAP kinase p38) of 0.00042 µM.

`CONC(=O)c1ccc(C)c(Nc2nc(N)nc(N(C)CC(C)(C)C)c2C#N)c1` gave an IC50 (PBMC) of 17 µM.

In the case of `CCn1nccc1NC(=O)c1ccc(C)c(Nc2nc(N)nc(NC(C)C)c2C#N)c1`, the IC50 (PBMC) is reported as 67 µM.

In the case of `CONC(=O)c1ccc(C)c(Nc2ncnc(NC(C)C)c2C#N)c1`, the IC50 (PBMC) is reported as 4.6 µM.

For `CCCNc1ncnc(Nc2cc(C(=O)NOC)ccc2C)c1C#N`, the IC50 (PBMC) was 158 µM.

Work on `Cc1ccc(C(=O)Nc2ccon2)cc1Nc1ncnc(NC2CCCC2)c1C#N` yielded an IC50 [7] greater than 100 µM, an IC50 [8] greater than 30 µM and an IC50 [9] greater than 25 µM. The IC50 [10] was greater than 50 µM, the IC50 [11] was greater than 50 µM and the IC50 [12] was greater than 50 µM. The IC50 [13] was greater than 30 µM, the IC50 [14] was 0.0041 µM and the IC50 [15] was greater than 50 µM. For the same compound, the IC50 [16] was greater than 50 µM, the IC50 [17] was less than 0.1 µM and the IC50 [18] was greater than 5 µM. For the same compound, the IC50 [19] was greater than 50 µM, the IC50 [20] was greater than 30 µM and the IC50 [21] was greater than 50 µM. For the same compound, the IC50 [22] was greater than 50 µM, the IC50 [23] was greater than 50 µM and the IC50 [24] was greater than 50 µM. It also gave an IC50 (PBMC) of 3.5 µM, an IC50 (Protein kinase C (PKC)) greater than 50 µM and an IC50 [25] greater than 50 µM. For the same compound, the IC50 [26] was greater than 50 µM, the IC50 [27] was greater than 10 µM and the IC50 [28] was greater than 30 µM.
